Results published in article PMC4226669, “Anti-cancer potency of tasquinimod is enhanced via albumin-binding facilitating increased uptake in the tumor microenvironment” (Oncotarget, 2014).

Assays:
[1] = tested on: CWR-22Rv1 human prostate cancer xenografts; assay: Dose-response growth inhibition of established CWR-22Rv1 xenografts (subcutaneous daily injection); type: in vivo, mouse; settings: 20 days
Description: To confirm these in vitro results, mice were inoculated subcutaneously (SQ) with CWR-22Rv1 cells and remained untreated until the tumors grew to ~ 200 mm3 (i.e., ~ 200 mgs) and then they were randomly assigned to groups (n=10) which were injected SQ daily with 100 μl of propylene glycol vehicle only vs. vehicle delivering 0.1 or 1 mg/kg/day of either tasquinimod or its carboxamide-N-demethylated metabolite. Propylene glycol was used as vehicle due to the low water solubility of the carboxamide-N-demethylated metabolite. After 20 days of continuous treatment, the experiment was terminated and the total weight of each cancer determined and the results expressed both as average tumor weight in grams and as the ratio of the weight of the cancers in the treated vs. vehicle control animals (i.e., T/C ratio), Figure 5A.
(§1) The source, history, and characteristics of the human prostate cancer cell lines (i.e., LNCaP, LAPC4, and CWR-22Rv1 and the human umbilical vascular endothelial cells (HUVEC) used, as well as cell culture conditions for their in vitro maintenance and the in vivo protocol for their xenografting into immune-deficient nude male mice are as described previously. The source, history, and characteristics of the TRAMP-C2 mouse prostate cancer line, as well as cell culture conditions for their in vitro maintenance and the in vivo protocol for their growth in intact adult male syngeneic C57Bl/6J are as described previously. All lines were mycoplasma negative using the MycoSensor PCR Assay kit (Agilent Technologies) and genetically authenticated within the last 6 months using short tandem repeat profiling conducted by the Johns Hopkins Genetic Resource Core Facility. The source, history, and characteristics of the CWR-RH human prostate cancer xenograft are as described previously. In vitro growth curves were determined as described. Animal studies were conducted according to animal protocol MO09M434 approved by Johns Hopkins Animal Care and Use Committee. Daily drug dosing via oral gavage, the drinking water, or subcutaneous injection, as well as tumor volume measurements and determination of the blood vessel density within cancers, were as described previously. These experiments were repeated at 3 independent times for each xenograft.

[2] = Protein binding fraction (PBF) in nude mouse plasma; type: in vitro ADME
Description: Mice were orally gavaged with ^14C-labeled tasquinimod at a dose of 5mg/kg and 1 hour later blood collected and plasma isolated and the PBF determined as described previously using Centrifree® YM-30 centrifuge filter unit with a molecular weight cutoff of 30K (i.e., Millipore, Billerica,MO).

[3] = tested on: HUVEC and CWR-22Rv1, LAPC-4, LNCaP cells; assay: In vitro cell metabolism in HUVEC and 3 prostate cancer cell lines; type: in vitro ADME, human; settings: 48 hours, 1 μM, confluent cell density
Description: (§2) Since tasquinimod binds to both S100A9 and HDAC4 proteins with high affinities and since S100A9 has both an extracellular and intracellular location while HDAC4 in prostate cancer cells is in the cell nucleus, it is important to evaluate whether tasquinimod is capable of entering cells or whether it only associates with extracellular plasma membrane components. To resolve this question, an in vitro approach was taken using three human prostate cancer cells (i.e., CWR-22Rv1, LAPC-4, and LNCaP) and human umbilical vein endothelial (HUVEC) cells. When 1 μM tasquinimod is added to 10% fetal bovine serum (FBS) supplemented media, there is sufficient albumin to bind 80% of the drug so that the protein-free concentration of tasquinimod in such media is only 0.2 μM. Preliminary studies documented that even after 48 hours of exposure of HUVEC and each of the 3 prostate cancer cell lines to 1 μM at confluent cell density, there was < 15% metabolism of the parental tasquinimod drug with the major metabolite being the O-demethylated quinoline compound.
For in vitro studies, cells were incubated with 1μM ^14C-labeled tasquinimod for indicated time period and then the media and cells or cell nuclei separately harvested, deproteinated with acetonitrile, and metabolites separated by HPLC and quantitated as described above.

[4] = tested on: TRAMP-C2 mouse prostate cancer; assay: TRAMP-C2 cancer growth and blood vessel density in syngeneic mice; type: in vivo; settings: 5 mg/kg/day via the drinking water
Description: Tasquinimod's oral potency is not restricted to human prostate cancer xenografts growing in immune-suppressed mice.
as §1, with “Daily drug dosing via oral gavage, the drinking water, or subcutaneous injection, as well as tumor volume measurements and determination of the blood vessel density within cancers, were as described previously. These experiments were repeated at 3 independent times for each xenograft.” left out

bovine albumin = target: T1, bovine albumin (Bos taurus, UniProt P02769); assay: Equilibrium dialysis binding to bovine albumin; settings: pH 7.4, equilibrium dialysis, read-out: equilibrium dissociation constant (Kd)
T1 construct: purchased Sigma
Description: To determine whether albumin is the tasquinimod binding protein in plasma, albumin was removed from human plasma using an albumin depletion kit (Thermo Scientific cat # 85160). The albumin depleted plasma was then tested for its protein binding as described above. The dissociation constant (kd) for tasquinimod binding was determined based upon equilibrium dialysis of a mixture of 4mg/ml of the species (i.e., human, bovine, and mouse) specific albumin obtained from Sigma with 2μM of ^14C-labeled tasquinimod in PBS pH 7.4 buffer using a 96-well equilibrium dialyzer™ (Harvard Apparatus, Holliston,MA).

[5] = tested on: metastatic, castrate resistant prostate cancer; design: method as in PMID 21931019, PMID 24255071; settings: vs placebo; cited from earlier work
[6] = Drug binding in 10% FBS supplemented media; type: in vitro ADME, bovine; settings: 1 μM in 10% FBS supplemented media
Description: as §2

T1 sequence (P02769 25-607): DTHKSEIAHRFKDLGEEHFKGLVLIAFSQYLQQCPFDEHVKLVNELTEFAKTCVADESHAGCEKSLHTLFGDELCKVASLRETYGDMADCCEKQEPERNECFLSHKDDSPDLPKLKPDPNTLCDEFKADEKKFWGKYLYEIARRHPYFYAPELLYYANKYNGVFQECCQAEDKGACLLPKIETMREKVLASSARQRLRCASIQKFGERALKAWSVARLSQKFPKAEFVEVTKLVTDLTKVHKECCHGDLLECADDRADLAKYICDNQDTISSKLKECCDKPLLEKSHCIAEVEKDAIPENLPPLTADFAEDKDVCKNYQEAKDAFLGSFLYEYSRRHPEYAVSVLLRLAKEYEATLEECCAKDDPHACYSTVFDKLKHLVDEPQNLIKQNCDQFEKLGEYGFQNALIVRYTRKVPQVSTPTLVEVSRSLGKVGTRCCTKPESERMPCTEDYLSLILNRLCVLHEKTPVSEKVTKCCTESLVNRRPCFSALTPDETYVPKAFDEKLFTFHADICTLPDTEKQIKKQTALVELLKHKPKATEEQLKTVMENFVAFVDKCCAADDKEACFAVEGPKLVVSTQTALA

For `COc1cccc2c1c(O)c(C(=O)N(C)c1ccc(C(F)(F)F)cc1)c(=O)n2C` [Tasquinimod], the “Avg Tumor Weight” value ([1]; 0.1 mg/kg/day SQ) was 0.855 ± 0.203 g, the “T/C Ratio” value ([1]; 0.1 mg/kg/day SQ) was 0.491 and the “Avg Tumor Weight” value ([1]; 1 mg/kg/day SQ) was 0.668 ± 0.166 g. The “T/C Ratio” value ([1]; 1 mg/kg/day SQ) was 0.383, the “potency on an equal dose basis vs carboxamide-N-demethylated metabolite” value ([1]; 0.1 or 1 mg/kg/day SQ) was “equipotent” and the “plasma tasquinimod that is albumin bound” value [2] was 98%. The “total plasma tasquinimod that is non-protein bound” value ([2]; following oral dosing) was ~ 2%, the fraction unbound at 1 h ([2]; oral, 5 mg/kg, nude mouse plasma) was 0.02 and the “metabolism of the parental drug” value [3] was under 15%. For the same compound, the “inhibition of TRAMP-C2 mouse prostate cancer growth” value ([4]; immune-competent syngeneic mice) was over 80%, the “inhibition of blood vessel density within the TRAMP-C2 cancers” value ([4]; treated vs. control) was 75 ± 9% and the Kd (bovine albumin) was 31 ± 6 µM. The median progression-free survival [5] was “doubles”, the “drug bound by albumin in media” value [6] was 80% and the “protein-free concentration in media” value [6] was 0.2 µM.
